In PubChem BioAssay AID2060620 (Molecular Pharmacology Branch, DTP, NCI, 2025):

System: 328373-195-R-J1-PDC complex spheroids, viability % test/control
Experiment: Anticancer human tumor 328373-195-R-J1-PDC patient-derived head and neck squamous carcinoma cell line growth inhibition [CLK]
Settings: for IC50: curve of first compound; for viability, T/C: stronger effect = lower value
From the text: A high-throughput screen of multi-cell type tumor spheroids was designed to identify active combinations of […] and targeted small molecules. Complex spheroids include a stromal component modeled by human endothelial cells (HUVEC) and fibroblasts modeled by human mesenchymal stem cells (MSCs). The concentration ranges selected for each drug and investigational agent were based upon clinically achievable concentrations if the clinical Cmax of the agent was known.
Compounds. The drugs and investigational agents: cirtuvivint (SM08502; NSC835563), CC-671 (NSC850746), vemurafenib (NSC761431), tapotoclax (NSC804041), sotorasib (NSC818433), adagrasib (NSC831453), MRTX-1133 (NSC836407), BAY2416964 (NSC825713), copanlisib (NSC816437), inavolisib (NSC800729), abemaciclib (NSC768073), osimertinib (NSC779217), entinostat (NSC756642), eltanexor (KPT-8602, NSC794443), venetoclax (NSC766270), ceralasertib (NSC777638), bortezomib (NSC756655), olaparib (NSC753686), talazoparib (NSC767125), alisertib (NSC759677), peposertib (NSC802822), gemcitabine (NSC613327), 5-fluorouracil (NSC19893), SN-38 (NSC673596), oxaliplatin (NSC266046), paclitaxel (NSC125973), and doxorubicin (NSC123127), were obtained from the National Cancer Institute (NCI) Developmental Therapeutics Program Chemical Repository. The FDA-approved anticancer drug set is available from the Developmental Therapeutics Program at https://dtp.cancer.gov/organization/dscb/obtaining/available plates.htm. […] The stock solutions were prepared in dimethyl sulfoxide (DMSO, Sigma-Aldrich, St. Louis, MO, cat. D2650), except for the platinum complexes which were prepared in saline (Quality Biological, Gaithersburg, MD, cat. 114-055-101), at 800-fold the tested concentration and stored at -70 degrees C prior to their use. All drugs and investigational agents were tested over a range starting from a high concentration at or near the clinical Cmax and decreasing in half-log increments. If the clinical Cmax for an agent had not been determined, the highest concentration tested was 10 microM.
Cell Culture. All cells were maintained in an incubator at 37 degrees C and 5% CO2 with 95% humidity. The PDC lines were cultured according to standard operating procedures established by the NCI PDMR. Briefly, all PDCs were thawed and cultured in Matrigel-coated flasks prepared with a working solution of 1X Ham's F-12 nutrient mix, without supplementation (Invitrogen, Waltham, MA, cat. 11765054), 100 U/mL penicillin-streptomycin (Invitrogen, cat. 15140122), and 2.5% Matrigel (Corning Inc., Corning, NY, cat. 354248) for the first three passages. The 947758-054-R-J2-PDC line was cultured in 6B/Colon 1A media, which includes advanced DMEM/F-12 (Thermo Fisher Scientific, cat. 12634028), 10 mM HEPES (Thermo Fisher Scientific, cat. 15630080), 1X GlutaMAX supplement (Thermo Fisher Scientific, cat. 35050061), 0.1 mg/mL primocin (InvivoGen, cat. ant-pm-2), 10% defined fetal bovine serum, heat inactivated (HyClone Laboratories Inc., cat. SH30070.03HI), 1.25 mM N-Acetyl-L-cysteine (Sigma-Aldrich, cat. A9165), 10 mM nicotinamide (Sigma-Aldrich, cat. N0636), 1X B-27 supplement (Thermo Fisher Scientific, cat. 17504044), 1X N-2 supplement (Thermo Fisher Scientific, cat. 17502048), and 10 microM Y-27632 dihydrochloride (Tocris Bioscience, cat. 1254). The 876862-298-R-J1-PDC was cultured in 6E media, which includes all 6B/Colon 1A media components plus 50% L-WRN conditioned media (ATCC, cat. CRL-3276), 50 ng/mL recombinant human EGF recombinant protein (hEGF; Thermo Fisher Scientific, cat. PHG0311), 10 ng/mL recombinant human fibroblast growth factor 10 (hGFG-10; PeproTech, cat. 100-26), 1 ng/mL recombinant human fibroblast growth factor 2 (hFGF-2; PeproTech, cat. 100-18B), and 1 µM prostaglandin E2 (PGE2; Tocris, cat. 2296). The 227483-062-R1-J1-PDC line was cultured in Panc media, containing all 6E components except hFGF-2, with the addition of 500 nM SB-431542 (Selleckchem, cat. S1067) and 10 nM gastrin (Tocris, cat. 3006). […]
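Note: spheroids exposed to the agents for 7 days.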

Cn1ncnc1[C@H]1c2n[nH]c(=O)c3cc(F)cc(c23)N[C@@H]1c1ccc(F)cc1 + CNC(=O)c1ccc(Nc2nc(OC3CCCC3)c3c(-c4ccc5nc(C)oc5c4)c[nH]c3n2)c(OC)c1
IC50 (second compound 0.0316 µM): 40.6 nM | IC50 (second compound 0.1 µM): < 0.316 nM | IC50 (second compound 0.316 µM): < 0.316 nM | IC50 (second compound 1 µM): < 0.316 nM | IC50 (second compound 3.16 µM): < 0.316 nM | IC50 (second compound 10 µM): < 0.316 nM | viability, T/C (second compound 0.0316 µM, first compound 0.000316 µM): 51.9% | viability, T/C (second compound 0.0316 µM, first compound 0.001 µM): 51.6% | viability, T/C (second compound 0.0316 µM, first compound 0.00316 µM): 47.8% | viability, T/C (second compound 0.0316 µM, first compound 0.01 µM): 66.8% | viability, T/C (second compound 0.0316 µM, first compound 0.0316 µM): 51.7% | viability, T/C (second compound 0.0316 µM, first compound 0.1 µM): 40.6% | viability, T/C (second compound 0.1 µM, first compound 0.000316 µM): 9.58% | viability, T/C (second compound 0.1 µM, first compound 0.001 µM): 9.68% | viability, T/C (second compound 0.1 µM, first compound 0.00316 µM): 9.49% | viability, T/C (second compound 0.1 µM, first compound 0.01 µM): 11.1% | viability, T/C (second compound 0.1 µM, first compound 0.0316 µM): 9.25% | viability, T/C (second compound 0.1 µM, first compound 0.1 µM): 12.2% | viability, T/C (second compound 0.316 µM, first compound 0.000316 µM): 9.25% | viability, T/C (second compound 0.316 µM, first compound 0.001 µM): 10.3% | viability, T/C (second compound 0.316 µM, first compound 0.00316 µM): 8.72% | viability, T/C (second compound 0.316 µM, first compound 0.01 µM): 10.3% | viability, T/C (second compound 0.316 µM, first compound 0.0316 µM): 9.93% | viability, T/C (second compound 0.316 µM, first compound 0.1 µM): 10.4% | viability, T/C (second compound 1 µM, first compound 0.000316 µM): 9.2% | viability, T/C (second compound 1 µM, first compound 0.001 µM): 9.13% | viability, T/C (second compound 1 µM, first compound 0.00316 µM): 9.32% | viability, T/C (second compound 1 µM, first compound 0.01 µM): 11.8% | viability, T/C (second compound 1 µM, first compound 0.0316 µM): 9.07% | viability, T/C (second compound 1 µM, first compound 0.1 µM): 8.36% | viability, T/C (second compound 3.16 µM, first compound 0.000316 µM): 9.59% | viability, T/C (second compound 3.16 µM, first compound 0.001 µM): 9.4% | viability, T/C (second compound 3.16 µM, first compound 0.00316 µM): 9.78% | viability, T/C (second compound 3.16 µM, first compound 0.01 µM): 10% | viability, T/C (second compound 3.16 µM, first compound 0.0316 µM): 11% | viability, T/C (second compound 3.16 µM, first compound 0.1 µM): 9.49% | viability, T/C (second compound 10 µM, first compound 0.000316 µM): 11.2% | viability, T/C (second compound 10 µM, first compound 0.001 µM): 11.1% | viability, T/C (second compound 10 µM, first compound 0.00316 µM): 8.71% | viability, T/C (second compound 10 µM, first compound 0.01 µM): 11.8% | viability, T/C (second compound 10 µM, first compound 0.0316 µM): 12.4% | viability, T/C (second compound 10 µM, first compound 0.1 µM): 8.72%
